Experimental data from paper PMC4601023, “Novel anticancer agent, SQAP, binds to focal adhesion kinase and modulates its activity” (Scientific Reports, 2015).

Key:
SCP-2 (400–547) = biological target: T1, SCP-2 (400–547) (Homo sapiens, UniProt P22307); experiment: SPR analysis, immobilized His-tagged SCP-2 (400-547); type: binding; settings: Biacore 3000, CM5 chip, 25 °C, read-out: dissociation constant (KD) for SCP-2
T1 construct: DNA encoding SCP-2 (400–547) was amplified; made in house; host or cells: E. coli Rosetta 2 (DE3) pLysS
T1 sequence (P22307 400-547): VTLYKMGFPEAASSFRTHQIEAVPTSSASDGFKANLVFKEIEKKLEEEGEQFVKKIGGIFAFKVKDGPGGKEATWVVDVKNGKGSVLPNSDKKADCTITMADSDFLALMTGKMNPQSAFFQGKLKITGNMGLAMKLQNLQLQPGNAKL
Excerpt: SPR was utilized as an independent confirmation of the kinetic parameters between SQAP and the putative binding proteins. […] The recombinant proteins were then expressed in Escherichia coli and purified to homogeneity. In addition, full length, His-tagged ADRM1 and GST-tagged HR23B (GST-HR23B) were also used. The proteins were first immobilized on a CM5 sensor chip of the SPR biosensor (Biacore 3000). For GST-HR23B analysis, a GST protein was additionally immobilized and used as a control in order to eliminate possible nonspecific binding of SQAP. SQAP samples at different concentrations were then injected over the proteins immobilized on the sensor chip. As a negative control we used sulfoquynovosylpropanediol (SQP), which lacks the fatty acid moiety of SQAP (Fig. 1). […]
The binding kinetics of SCP-2, MFE-2, ADRM1, HR23B and FAK with SQAP and SQP were analyzed on a Biacore 3000 instrument (GE Healthcare, Little Chalfont, UK). […] The buffer of purified peptides was exchanged to HBS-P (150 mM NaCl, 0.005% Surfactant P20, 10 mM HEPES-NaOH pH 7.4) using a PD 10 column (GE Healthcare, Little Chalfont, UK) and the concentrations were quantified using DC protein assay kit (Bio-Rad Laboratories, Hercules, CA, USA). […] Kinetic parameters were determined by analyzing the data using BIAevaluation 4.1 software (GE Healthcare, Little Chalfont, UK).

[1] = test system: paxillin phosphorylation at Y118 in HUVEC; experiment: Paxillin phosphorylation in HUVEC, Western blotting; type: cell-based, human; settings: total paxillin unaltered
Excerpt: Furthermore, we looked at FAK signaling pathway to validate our results. Paxillin binds to FAK 919–938 residues which is a sequence contained within the region where SQAP is predicted to bind. Binding between paxillin and FAK results in paxillin phosphorylation at Y118[35][36]. Thus, we examined paxillin phosphorylation. […] Additionally, we studied Akt phosphorylation at S473 on account of FAK is a known factor in control of Akt activity. We observed that Akt phosphorylation was diminished when treated with SQAP or SQMG for 21 h (see Supplementary Fig. S3).
Cells were harvested and solubilized in RIPA buffer (20 mM Tris-HCl, pH 7.5, 1% Sodium deoxycholate, 150 mM NaCl, 5 mM EDTA, 1% Triton X-100, 0.1% SDS, 0.1%, 1 mM PMSF, 1 mM vanadate and 1 μg/mL leupeptin). Protein quantification was determined using the DC protein assay kit (Bio-Rad, Hercules, CA, USA). A total of 15 μg of each protein sample were separated by SDS–PAGE gels and blotted onto polyvinylidene difluoride membranes (Merck, Kenilworth, NJ, US). After blocking for 1 h with Blocking-One (Nacalai Tesque, Kyoto, Japan), proteins were detected by incubating the membranes with the primary antibody at 4 °C overnight (anti-Y397 2:2000, anti-Y925 5:2000 and anti-FAK 0.5:2000) followed by incubation with horseradish peroxidase-conjugated secondary antibodies at room temperature for 1 h (anti-mouse 0.5:2000 and anti-rabbit 0.4:2000).

[2] = test system: VEGF mRNA expression in A549 cells; experiment: VEGF mRNA expression, quantitative real-time RT-PCR, A549; type: cell-based, human; settings: A549, 6 h, increased concentration of SQAP
Method: Figure 5 Effect of SQAP on FAK phosphorylation. The level of FAK phosphorylated at Y397 and Y925 was evaluated by Western blotting. (A) HUVEC cells were serum-depleted for 20 h before treatment with SQAP or vehicle for 30 min followed by treatment with or without VEGF (50 ng/mL) for 30 min. (B) HUVEC cells were cultured as stated in section A and then treated with SQAP, SQMG or SQP. (C) A549 cells were serum-deprived for 48 h before pretreatment with SQAP or vehicle followed by treatment with or without fibronectin (10 μg/mL) for 30 min. (D) A549 cells were cultured as stated in section C and then treated with SQAP, SQMG or SQP. (E–F) HUVEC and A549 cells were treated with SQAP for 6 h before adding an RNA stabilization reagent and prepared for Quantitative real-time RT-PCR.
Total RNA was prepared using an RNeasy Mini Kit (QIAGEN Inc., Hilden, Germany) according to the manufacturer’s instructions and then reverse-transcribed to cDNA with Transcriptor First Strand cDNA Synthesis Kit (Roche Applied Science, Mnnheim, Germany). Measurement of gene expression by quantitative analysis was performed using the LightCycler system (Roche Applied Science). Quantitative real-time RT-PCR analysis of β-actin, TSP-1 and VEGF-A expression were performed using the LightCycler FastStart DNA MasterPLUS SYBR Green I system (Roche Applied Science). […]

## CCCCCCCCCCCCCCCCCC(=O)OCCCO[C@H]1O[C@H](CS(=O)(=O)O)[C@@H](O)[C@H](O)[C@H]1O [SQAP, sulfoquynovosylacylpropanediol]
SCP-2 (400–547)
  Kd: 15.6 µM
[1]
  paxillin phosphorylation at Y118: inhibition of paxillin-phosphorylation
[2]
  VEGF production level (mRNA, RT-PCR): mild production decrease
